By inhibition is commonly meant the drop in the measured response relative to a control, in per cent. Usually IC50 stands for the concentration needed to halve the response being measured.

Results on six compounds are retold here after US9828375B2, “4-position substituted pyrazolopyrimidine derivative, and use thereof in drug preparation” (Guangxi Wuzhou Pharmaceuticals (Group) Co., Ltd., priority 2012, dated 2017).

One assay concerns the target PDGFRα (Homo sapiens, UniProt P16234). The experiment in a line: Kinase inhibition activity test, isotope labeling: PDGFRα. Particulars: test compound at a concentration of 10 μM; for inhibition at 10 µM: read-out: Activity inhibition rate PDGFRα (h). The assay is classed as biochemical. On the procedure:
(§1) The purpose of this experiment was to test the inhibitory activity of the compound of the invention for in vitro kinase with the isotope labeling method (the γ phosphate group on ATP was labeled). In this experiment, the in vitro activity inhibition of such kinases as FLT3, VEGFR2, FLT1, FLT4, RET, c-RAF, B-RAF, c-KIT, PDGFα, PDGFβ, FGFR2, FGFR1, EphA2, EphB2, SRC, ABL, ALK and Met was tested respectively. Staurosporine was reference molecule (or referred to as positive control). The kinase inhibition activity of the test compound was expressed by half-inhibitory concentration (IC50) or the kinase activity inhibition rate of the test compound at a concentration of 10 μM. The IC50 value could be obtained by calculating the kinase activity inhibition rate of the test compound at different concentrations.
(§2) 20 mM 3-(N-morpholinyl)propanesulfonic acid (MOPS); 1 mM ethylenediaminetetraacetic acid (EDTA), 0.01% Brij 35 (Brij-35), 5% glycerol, 0.1% mercaptoethanol, 1 mg/mL bovine serum albumin (BSA), 10 mM manganous dichloride solution (MnCl2), 0.1 mg/mL glutamic acid/tyrosine (4:1) polypeptide (poly(Glu, Tyr)4:1), 50 μM EAIYAAPFAKKK (substrate of FLT3), 0.33 mg/mL myelin basic protein (substrate of VEGFR2), 250 μM KKKSPGEYVNIEFG (substrate of FLT1(h)), 500 μM GGEEEEYFELVKKKK (substrate of FLT4(h)), 250 μM KKKSPGEYVNIEFG (substrate of RET), 0.66 mg/mL myelin basic protein (substrate of C-RAF), 250 μM GGMEDIYFEFMGGKKK (substrate of c-Kit), 250 μM GGMEDIYFEFMGGKKK (substrate of PDGFα), 250 μM KKKSPGEYVNIEFG (substrate of FGFR1), […] GGEEEEYFELVKKKK (substrate of SRC), 50 μM EAIYAAPFAKKK (substrate of ABL), 250 μM KKKSPGEYVNIEFG (substrate of ALK), 250 μM KKKSPGEYVNIEFG (substrate of Met(h)), 10 mM magnesium acetate and γ-^33 P-ATP solution, stop buffer (3% phosphate buffer), washing buffer (75 mM phosphate solution), methanol, Filtermat A membrane, FLT3, VEGFR2, FLT3, VEGFR2, FLT1, FLT4, RET, c-RAF, B-RAF, c-KIT, PDGFRα, PDGFRβ, FGFR2, FGFR1, EphA2, EphB2, SRC, ABL, ALK, Met and other kinases, and the test compounds.
(§3) Buffers (8 mM MOPS with pH value of 7.0, 0.2 mM EDTA and 10 mM MnCl2), (5-10 mU) kinases to be tested (FLT3, VEGFR2, FLT1, FLT4, RET, c-RAF, B-RAF, c-KIT, PDGFRα, PDGFRβ, FGFR2, FGFR1, EphA2, EphB2, SRC, ABL, ALK and Met), substrates of kinases to be tested (refer to experimental materials), 10 mM magnesium acetate and γ-^33 P-ATP solution, and test compounds at different concentrations were added to a reaction tube orderly. […] Reaction was terminated with 5 μL 3% phosphate buffer finally, and 10 μL reaction solution was titrated to the Filtermat A membrane; solution was washed for 3 times with 75 mM phosphate solution with each time lasting 5 minutes, and then washed once with methanol. Finally, the Filtermat A membrane was dried, and scintillation counting was performed on the membrane, with scintillation count reflecting the phosphorylation degree of the substrates, so that the activity inhibition of kinase could be characterized.

The subject of assay [1] is human leukemia cell line MV4-11. Put plainly: In vitro tumor cell proliferation inhibition (MTT): MV4-11. The assay is classed as cell-based. The gist of the method: (§4)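 Cells seeded at 1-2×10^4/mL, cultured overnight, then exposed to graded compound concentrations (0.1% DMSO) for 72 h at 37° C., 5% CO2, triplicate wells. MTT added for 2-4 h, formazan dissolved in DMSO, absorbance read at 570 nm; IC50 or inhibition rate from ≥3 repeats.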

The subject of assay [2] is human gastric carcinoma cell line MKN-45. The experiment in a line: In vitro tumor cell proliferation inhibition (MTT): MKN-45. The assay is classed as cell-based. In short, it runs like this: as §4
In the next assay the target is VEGFR2 (Homo sapiens, UniProt P35968). The experiment in a line: Kinase inhibition activity test, isotope labeling (γ-33P-ATP): VEGFR2. Format: biochemical. As to conditions: test compound at a concentration of 10 μM; for inhibition at 10 µM: read-out: Activity inhibition rate VEGFR2 (h). Here is the method:
as §1, §2, §3

Assay [3] deals with human leukemia cell line K562. Put plainly: In vitro tumor cell proliferation inhibition (MTT): K562. Format: cell-based. The gist of the method:
as §4

Assay [4] relates to human pancreatic carcinoma cell line panc-1. The experiment in a line: In vitro tumor cell proliferation inhibition (MTT): panc-1. Format: cell-based. The gist of the method: as §4

Sequence of PDGFRα (P16234 24-1089): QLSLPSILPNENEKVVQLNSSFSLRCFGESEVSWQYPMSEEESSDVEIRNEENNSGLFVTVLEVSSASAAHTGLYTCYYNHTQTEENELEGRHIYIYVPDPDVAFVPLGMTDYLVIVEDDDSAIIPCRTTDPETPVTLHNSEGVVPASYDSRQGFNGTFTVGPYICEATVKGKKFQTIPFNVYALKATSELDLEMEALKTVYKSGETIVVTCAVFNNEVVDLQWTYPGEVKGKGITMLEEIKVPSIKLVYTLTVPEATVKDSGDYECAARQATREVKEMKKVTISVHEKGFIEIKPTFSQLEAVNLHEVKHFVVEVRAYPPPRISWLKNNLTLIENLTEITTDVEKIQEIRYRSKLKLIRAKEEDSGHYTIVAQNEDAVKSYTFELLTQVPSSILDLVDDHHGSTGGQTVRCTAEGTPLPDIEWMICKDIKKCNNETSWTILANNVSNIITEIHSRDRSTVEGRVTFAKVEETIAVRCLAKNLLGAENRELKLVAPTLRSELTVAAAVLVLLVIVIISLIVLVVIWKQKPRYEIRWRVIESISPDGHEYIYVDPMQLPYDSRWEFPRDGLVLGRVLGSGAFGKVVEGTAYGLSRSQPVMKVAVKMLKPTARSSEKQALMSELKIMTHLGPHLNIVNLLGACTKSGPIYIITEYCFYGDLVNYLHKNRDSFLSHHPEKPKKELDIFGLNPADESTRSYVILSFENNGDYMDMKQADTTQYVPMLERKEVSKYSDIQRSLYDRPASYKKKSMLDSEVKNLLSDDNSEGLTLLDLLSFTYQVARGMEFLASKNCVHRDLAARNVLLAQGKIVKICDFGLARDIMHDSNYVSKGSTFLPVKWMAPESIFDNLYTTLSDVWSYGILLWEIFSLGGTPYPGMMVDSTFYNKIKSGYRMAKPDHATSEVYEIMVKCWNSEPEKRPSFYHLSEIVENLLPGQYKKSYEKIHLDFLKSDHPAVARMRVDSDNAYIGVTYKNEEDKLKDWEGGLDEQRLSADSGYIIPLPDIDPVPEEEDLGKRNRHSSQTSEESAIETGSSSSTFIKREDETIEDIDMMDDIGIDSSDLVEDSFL
Sequence of VEGFR2 (P35968 20-1356): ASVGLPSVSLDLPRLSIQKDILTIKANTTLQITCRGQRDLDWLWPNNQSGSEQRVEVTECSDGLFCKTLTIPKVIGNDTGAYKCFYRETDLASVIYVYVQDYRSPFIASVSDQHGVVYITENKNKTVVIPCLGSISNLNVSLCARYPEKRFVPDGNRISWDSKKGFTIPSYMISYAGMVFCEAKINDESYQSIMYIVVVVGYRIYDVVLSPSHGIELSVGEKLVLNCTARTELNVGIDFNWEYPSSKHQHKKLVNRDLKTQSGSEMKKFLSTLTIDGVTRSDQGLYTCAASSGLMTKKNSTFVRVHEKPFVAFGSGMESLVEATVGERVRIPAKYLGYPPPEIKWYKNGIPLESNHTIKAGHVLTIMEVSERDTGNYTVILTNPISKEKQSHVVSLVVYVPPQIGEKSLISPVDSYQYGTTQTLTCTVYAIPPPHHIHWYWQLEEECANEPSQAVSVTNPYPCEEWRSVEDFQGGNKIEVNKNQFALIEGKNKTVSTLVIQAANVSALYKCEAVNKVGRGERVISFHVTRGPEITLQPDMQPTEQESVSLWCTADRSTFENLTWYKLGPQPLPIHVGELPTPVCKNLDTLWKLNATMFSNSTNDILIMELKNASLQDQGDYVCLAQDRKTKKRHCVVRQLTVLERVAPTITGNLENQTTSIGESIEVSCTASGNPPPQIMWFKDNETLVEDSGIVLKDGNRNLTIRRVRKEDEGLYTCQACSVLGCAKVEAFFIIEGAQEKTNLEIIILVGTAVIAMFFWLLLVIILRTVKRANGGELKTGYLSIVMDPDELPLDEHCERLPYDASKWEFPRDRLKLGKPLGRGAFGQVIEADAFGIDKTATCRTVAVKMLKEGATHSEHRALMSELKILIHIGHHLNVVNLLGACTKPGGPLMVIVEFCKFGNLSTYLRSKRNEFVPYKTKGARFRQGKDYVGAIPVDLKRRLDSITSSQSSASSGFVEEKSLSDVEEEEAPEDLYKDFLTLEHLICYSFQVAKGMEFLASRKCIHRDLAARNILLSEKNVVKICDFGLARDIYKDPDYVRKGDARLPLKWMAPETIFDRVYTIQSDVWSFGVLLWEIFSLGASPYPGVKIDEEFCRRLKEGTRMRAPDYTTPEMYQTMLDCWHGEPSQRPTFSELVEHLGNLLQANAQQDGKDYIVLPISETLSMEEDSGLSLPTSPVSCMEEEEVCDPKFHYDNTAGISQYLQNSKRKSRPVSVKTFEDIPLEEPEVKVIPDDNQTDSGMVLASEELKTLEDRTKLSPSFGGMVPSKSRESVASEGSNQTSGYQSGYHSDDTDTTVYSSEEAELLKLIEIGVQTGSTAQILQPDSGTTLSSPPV

With `COc1cccc(NC(=O)Nc2ccc(Nc3ncnc4[nH]ncc34)cc2)c1` [4b-3], the inhibition at 10 µM was greater than 30% at PDGFRα and 96% on VEGFR2. Moreover, the IC50 in assay [1] (Homo sapiens, MV4-11, 72 h) was 1.65 µM; in assay [2] (Homo sapiens, MKN-45, 72 hours) it was less than 50 µM; in assay [3] (Homo sapiens, K562, 72 hours), less than 50 µM; in assay [4] (Homo sapiens, PANC-1, 72 hours), less than 50 µM.

Consider `C[C@H](NC(=O)Nc1ccc(Nc2ncnc3[nH]ncc23)cc1)c1ccccc1` [4b-4], for which, at PDGFRα, the “Activity inhibition rate PDGFRα (h)” value is reported as greater than 30%. The IC50 is 2.05 µM in assay [1] (72 hours), less than 50 µM in assay [2] (72 hours), less than 50 µM in assay [3] (72 hours) and less than 50 µM in assay [4] (72 hours). Besides, the “Activity inhibition rate VEGFR2 (h)” value at VEGFR2 (10 µM) is on record as 94%.

For the compound `COc1ccc(NC(=O)Nc2ccc(NC(=O)N3C=NC=C4NNC=C43)cc2)cc1` [4b-6, 1-(4-(1H-pyrazolopyrimidine-4-amido)phenyl)-3-(4-methoxyphenyl)urea], the inhibition at 10 µM at PDGFRα was greater than 30%; on VEGFR2, 95%. Further, the half-inhibitory concentration (IC50) in assay [1] (Homo sapiens, MV4-11, 72 h) was 0.729 µM; in assay [2] (Homo sapiens, MKN-45, 72 hours), less than 50 µM; in assay [3] (Homo sapiens, K562, 72 hours) it was less than 50 µM; in assay [4] (Homo sapiens, PANC-1, 72 hours), less than 50 µM.

In the case of `Cc1cc(C)c(NC(=O)Nc2ccc(NC(=O)N3C=NC=C4NNC=C43)cc2)c(C)c1` [4b-7, 1-(4-(1H-pyrazolopyrimidine-4-amido)phenyl)-3-(2,4,6-trimethylphenyl)urea], the inhibition at 10 µM at PDGFRα was greater than 30%; at VEGFR2, 92%. The IC50 in assay [1] (Homo sapiens, MV4-11, 72 h) was 0.667 µM; in assay [2] (Homo sapiens, MKN-45, 72 hours), less than 50 µM; in assay [3] (Homo sapiens, K562, 72 hours) it was less than 50 µM; in assay [4] (Homo sapiens, PANC-1, 72 hours) it was less than 50 µM.

Consider `CC(C)(C)c1cc(NC(=O)Nc2ccc(Sc3ncnc4[nH]ncc34)cc2)no1` [4c-3, 1-(4-(1H-pyrazolopyrimidine-4-sulfydryl)phenyl)-3-(5-tert-butylisoxazol-3-yl)urea], for which the “Activity inhibition rate PDGFRα (h)” value at PDGFRα is greater than 50%. For the same compound, the IC50 was less than 1 µM in assay [1] (72 hours), 3 to 10 µM in assay [2] (72 hours), less than 50 µM in assay [3] (72 hours) and less than 50 µM in assay [4] (72 hours). Further, the “Activity inhibition rate VEGFR2 (h)” value on VEGFR2 was 100%.

Turning to `CC(C)n1ncc2c(Oc3ccc(NC(=O)Nc4cc(C(C)(C)C)on4)cc3)ncnc21` [5a-4, 1-(5-tert-butylisoxazol-3-yl)-3-(4-(1-isopropyl-(1H-pyrazolopyrimidine-4-yl)oxy)phenyl)urea], the inhibition at 10 µM is greater than 30% on PDGFRα and greater than 90% at VEGFR2. The IC50 in assay [1] (Homo sapiens, MV4-11, 72 h) is less than 1 µM; in assay [2] (Homo sapiens, MKN-45, 72 hours), less than 50 µM; in assay [3] (Homo sapiens, K562, 72 hours), less than 50 µM; in assay [4] (Homo sapiens, PANC-1, 72 hours), less than 50 µM.
